In paper PMC7615709 (Antiviral research, 2007):
pIC50: −log10 of the molar value.

Biological target: T1, FLAG-p7 (HCV p7, genotype 1b) (Hepatitis C virus isolate HC-J4, UniProt O92972)
T1 sequence (O92972 747-809 limits assumed): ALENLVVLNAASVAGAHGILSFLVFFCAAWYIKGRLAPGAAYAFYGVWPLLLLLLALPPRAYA
Assay: carboxyfluorescein release from liposomes, fluorimetry, initial rates
Format: biochemical

NC12CC3CC(CC(C3)C1)C2 [amantadine]
pIC50: ~5.70
